Laboratory results from patent publication US20050080113A1, “Medicinal compositions” (priority 2001, published 2005).

What was measured:
TNF-α production = assay: Measurement of inhibiting activity of TNF-α production in LPS-stimulated THP-1 cells, ELISA (Reference Example C 2); type: cell-based; conditions: Homo sapiens, LPS 5 μg/mL, 4 hours, read-out: IC50 (concentration necessary for inhibiting TNF-α production by 50%)
Method: Measurement of Inhibiting Activity of TNF-α Production
After THP-1 cells which had been cultured on PRMI 1640 medium (manufactured by Life Technologies, Inc.) containing 1% inactivated bovine fetal serum (manufactured by Life Technologies, Inc., U.S.A.) and 10 mM HEPES (pH 7.5) seeded on a 96 well-plate to 1×10^5 cells/well, 1 μL test compound dissolved in DMSO was added. After incubation at 37° C. for 1 hour in a CO2 incubator, LPS (Wako Pure Chemicals) was added to the final concentration 5 μg/mL. After cultured at 37° C. for 4 hours in a CO2 incubator, the supernatant was obtained by centrifugation. The concentration of TNF-α in the supernatant was measured by ELISA (R&D Systems, Quantikine Kit). The concentration (IC50 value) of the test compound necessary for inhibiting TNF-α production by 50% was calculated using PRIMS 2.01 (Graphpad Software).

human p38 MAP kinase = target: T1, human p38 MAP kinase (Homo sapiens, UniProt Q16539); assay: Measurement of the enzyme inhibitory activity of active form p38 MAP kinase, 32P uptake into Myelin Basic Protein (Reference Example C 1); type: biochemical; conditions: Myelin Basic Protein substrate, 30° C., 60 minutes, read-out: IC50 (concentration necessary for inhibiting uptake of 32P into an acid insoluble fraction by 50%)
T1 construct: made in house; host or cells: Sf-21 insect cells, baculovirus (BAC-HP38 co-infected with BAC-caMKK3)
T1 sequence (Q16539 whole entry): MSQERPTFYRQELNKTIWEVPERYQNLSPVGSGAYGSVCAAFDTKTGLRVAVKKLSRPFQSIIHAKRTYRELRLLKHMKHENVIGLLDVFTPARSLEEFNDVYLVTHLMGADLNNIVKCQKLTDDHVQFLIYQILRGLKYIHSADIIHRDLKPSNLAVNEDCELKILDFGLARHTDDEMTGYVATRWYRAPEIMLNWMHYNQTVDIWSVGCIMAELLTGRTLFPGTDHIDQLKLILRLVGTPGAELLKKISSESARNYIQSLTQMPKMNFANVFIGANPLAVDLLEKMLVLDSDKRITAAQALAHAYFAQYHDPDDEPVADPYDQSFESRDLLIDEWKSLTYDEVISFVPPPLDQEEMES
Method: The genetic manipulations described below were according to a method described in the book (Maniatis et al., Molecular Cloning, Cold Spring Harbor Laboratory, 1989) or methods described in the protocols attached to the reagents.
(1) Cloning of Human p38 MAP Kinase Gene and Preparation of Recombinant Baculovirus
Cloning of human p38 MAP kinase gene was performed by a PCR method using a primer set P38 U: 5′-[…] 3′ [SEQ ID NO:1] and PAG-L: 5′-[…]-3′ [SEQ ID NO:2] made by the use of kidney cDNA (Toyobo, QUICK-Clone cDNA) as a template and referring to the base sequence of p38 MAP kinase gene reported by Han et al. (Science 265 (5173), 808 811 (1994)).
A PCR reaction was performed by a Hot Start method using AmpliWax PCR Gem 100 (Takara Shuzo). As the lower mixed solution, 2 μL 10×LA PCR Buffer, 3 μL 2.5 mM dNTP solution, each 2.5 μL of 12.5 μM primer solutions, and 10 μL sterile distilled water were mixed. As the upper mixed solution, 1 μL human cardiac cDNA (1 ng/mL) as a template, 3 μL 10×LA PCR Buffer, 1 μL 2.5 mM dNTP solution, 0.5 μL TaKaRa LA Taq DNA polymerase (Takara Shuzo), and 24.5 μL sterile distilled water were mixed. One AmpliWax PCR Gem 100 (Takara Shuzo) was added to the prepared lower mixed solution and the mixture was treated at 70° C. for 5 min and for 5 min in an ice and, thereafter, the upper mixed solution was added to prepare a reaction solution for PCR. […]

[1] = Test using rat yeast-induced pain model animal (pain threshold, pressure device), Example 1; type: in vivo; conditions: oral, pain threshold 2 hours after administration
Method: Male Sprague-Dawley rats (4 week-old, Clear Japan) were used. A 20% yeast physiological saline solution (0.1 ml) was subcutaneously injected into right hind pedal sole to induce inflammation in the right hind pedal sole. One hour later, 0.5% aqueous methyl cellulose or Reference Example D compound 16 1 suspended in 0.5% aqueous methyl cellulose was orally administered (0.5 ml/100 g body weight). After 2 hours from sample administration, pain threshold value was measured based on false escape reaction using a pressure device. A group contained 6 rats.

[2] = system: osteoclast formation in mouse bone marrow cells; assay: Inhibitory action of osteoclast formation (TRAP positive multinucleated cells, bone marrow cell culture), Example 2; type: cell-based; conditions: for Osteoclast count (/well): 6 days, TRAP positive multinucleated cells, average ± standard deviation (N = 4-5)
Method: Bone marrow cells were collected from the tibia of 8-week-old male ddY mouse and suspended in αMEM medium containing 10% FBS and sown in a 24 well plate at a density of 10^6 cells/0.5 ml/well. After static culture overnight, the medium was changed to the above-mentioned medium containing 10^−8 M 1α, 25 (OH)2D3 or Reference Example D compound 16 1 at 0.01, 0.1, 1 or 10 μM, respectively and further cultured for 6 days. After the completion of the culture, the cells were fixed and subjected to staining of tartrateresistant acid phosphatase (TRAP), which is a differentiation index of osteoclast, and TRAP positive multinucleated cells with three or more nuclei were counted as osteoclasts with a microscope.

With `CNc1nc(-c2ccc(OC)cc2)c(-c2ccncc2)s1` [13-16, N-methyl [4-(4-methoxyphenyl)-5-(4-pyridyl)-1,3-thiazol-2-yl]amine] as the compound, how does the IC50 (TNF-α production) read?
Its IC50 is 140 nM.

And the melting point?
Its melting point is 177 to 178 °C.

Which IC50 (TNF-α production) does the source give for `CNc1nc(-c2ccc(Cl)cc2)c(-c2ccncc2)s1` [13-70, N-methyl [4-(4-chlorophenyl)-5-(4-pyridyl)-1,3-thiazol-2-yl]amine] here?
The IC50 was 180 nM.

What about the melting point of the same compound?
Its melting point is 224 to 225 °C.

For `CNc1nc(-c2ccc3c(c2)CCC3)c(-c2cccnc2)s1` [13-74], which IC50 (human p38 MAP kinase) is on record?
Its IC50 is 630 nM.

And the melting point?
The melting point was 172 to 173 °C.

For `CCc1nc(-c2cccc(C)c2)c(-c2ccnc(NC(=O)c3ccccc3)c2)s1` [D 16-1, N-[4-[2-ethyl-4-(3-methylphenyl)-1,3-thiazol-5-yl]-2-pyridyl]benzamide], which antinociceptive effect [1] is on record?
The antinociceptive effect was “dose-dependent antinociceptive effect”.

What about the “minimum effective dose (antinociceptive effect)” value [1] of the same compound?
The value was 10 mg/kg.

And the number of osteoclasts ([2]; 0.01, 0.1, 1 or 10 μM)?
Its number of osteoclasts is “decreased in a dose-dependent manner”.

What about the IC50 ([2]; 144 h, mouse bone marrow cells, 1α,25(OH)2D3, 6 days culture, read-out: IC50 value against formation of osteoclast) of the same compound?
The IC50 was 300 nM.

What about the formation of osteoclast ([2]; at 10 μM) of the same compound?
The formation of osteoclast was “barely observed”.

What about the “Osteoclast count (/well)” value ([2]; concentration 0.01 μM, mouse bone marrow cells) of the same compound?
The value was 183.8 ± 2.9 /well.

What about the “Osteoclast count (/well)” value ([2]; concentration 0.1 μM, mouse bone marrow cells) of the same compound?
Its value is 140.8 ± 7.6 /well.

What about the “Osteoclast count (/well)” value ([2]; concentration 1 μM, mouse bone marrow cells) of the same compound?
Its value is 72.4 ± 4.4 /well.

What about the “Osteoclast count (/well)” value ([2]; concentration 10 μM, mouse bone marrow cells) of the same compound?
The value was 0.6 ± 0.4 /well.

What about the “concentration from which the action on osteoclast number was found significantly” value ([2]; mouse bone marrow cells, 0.01-10 μM tested) of the same compound?
The value was 0.1 µM.
